Laboratory results from patent publication US20250388602A1 (Genase Therapeutics B.V., priority 2022, published 2025).
Read-outs that look alike come from different tables or passages of the source.

Key:
recombinant human DHODH = recombinant human DHODH (Homo sapiens (Human), UniProt Q02127); assay: DHODH enzyme assay (Assay A), DCIP absorbance; format: biochemical
Experimental: Inhibition of human dihydroorotate dehydrogenase (DHODH) by example compounds as described herein was determined using one of two assays as described below.
DHODH enzyme assays were performed with 6 nM recombinant human DHODH (purified essentially as described by Walse et al., Biochemistry, 47, 8929-8936 (2008)). The reaction mixture consisted of 1 mM DL-dihydroorotic acid (#D7003, Sigma-Aldrich), 100 μM 3,4-dimethoxy-5-methyl-p-benzoquinone (#D9150, Sigma-Aldrich), and 100 μM 2,6-dichlorophenolindophenol sodium salt (DCIP) (#D1878, Sigma-Aldrich) in enzyme buffer (50 mM Tris-HCl pH 8.0, 0.1% Triton X-100, 150 mM KCl). A stock solution of 20 mM DCIP was prepared in enzyme buffer and filtered through Whatman paper just before use. Reactions were performed in a total volume of 100 μL, consisting of 1 μL of compound, 49 μL of enzyme and 50 μL of reaction mixture. Loss in absorbance by chromogen DCIP was measured at 595 nm following a 70 minute incubation at 32° C.

MOLM-13 cells = assay: MOLM-13 cell viability (Assay B), Cell Titer-Glo; format: cell-based; details: Homo sapiens, read-out: IC50 MOLM13 inhibition activity
Experimental: MOLM-13 cells (an acute myeloid leukemia cell line) were plated in RPMI supplied with 10% FBS and 1% Pen/Strep in 384-well plates at 1,000 cells per well on day 0. On day 1, treatment of the cells with compound (concentration range 10E-5 and 6E-12 M) was initiated in the presence or absence of 100 μM uridine. After 72 hours incubation of the cells with or without test compound, the number of viable cells per well was assessed by Cell Titer-Glo Luminescent Cell Viability Assay (Promega, Madison, WI, USA). […] Each condition was tested in duplicate and the potency of test compounds was determined from two independent experiments.

[1] = bins ≥10 nM-<100 nM and <10 nM, read-out: IC50 DHODH inhibition activity
[2] = MOLM-13, 72 hours, bins ≥10 nM-<100 nM and <10 nM

Sequence of recombinant human DHODH (Q02127 whole entry): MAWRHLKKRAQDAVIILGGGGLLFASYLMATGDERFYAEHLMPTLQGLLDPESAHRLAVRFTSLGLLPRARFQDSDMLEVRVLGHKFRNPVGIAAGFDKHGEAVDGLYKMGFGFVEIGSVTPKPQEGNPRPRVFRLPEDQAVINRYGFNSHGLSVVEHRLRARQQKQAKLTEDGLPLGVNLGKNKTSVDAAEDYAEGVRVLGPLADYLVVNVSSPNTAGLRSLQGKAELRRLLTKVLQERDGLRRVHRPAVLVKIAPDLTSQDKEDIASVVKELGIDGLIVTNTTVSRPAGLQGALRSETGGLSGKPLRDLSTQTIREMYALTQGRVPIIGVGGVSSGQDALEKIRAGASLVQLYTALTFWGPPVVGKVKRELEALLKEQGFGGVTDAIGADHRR

SMILES | IC50 (recombinant human DHODH; [1]) | IC50 (MOLM-13 cells; [2]) | IC50 (MOLM-13 cells; MOLM-13, 72 h) | IC50 (recombinant human DHODH; read-out: IC50 DHODH inhibition activity) | IC50 (recombinant human DHODH)
Cc1cccc(-n2ncc3c2COC[C@H]3NC(=O)c2noc3c2CCCC3)c1Cl [Ex-18, (S)—N-(1-(2-chloro-3-methylphenyl)-1,4,5,7-tetrahydropyrano[3,4-c]pyrazol-4-yl)-4,5,6,7-tetrahydrobenzo[d]isoxazole-3-carboxamide] | < 10 nM | < 10 nM | – | – | –
CCc1c(C(=O)N[C@@H]2COCc3c2cnn3-c2cccc(C)c2Cl)n[nH]c1C [Ex-19, (S)—N-(1-(2-chloro-3-methylphenyl)-1,4,5,7-tetrahydropyrano[3,4-c]pyrazol-4-yl)-4-ethyl-5-methyl-1H-pyrazole-3-carboxamide] | 10 to 100 nM | 10 to 100 nM | – | – | –
COc1cccc(-n2ncc3c2COC[C@H]3NC(=O)c2ncn3c2CCCC3)c1Cl [Ex-21, (S)—N-(1-(2-chloro-3-methoxyphenyl)-1,4,5,7-tetrahydropyrano[3,4-c]pyrazol-4-yl)-5,6,7,8-tetrahydroimidazo[1,5-a]pyridine-1-carboxamide] | < 10 nM | – | < 10 nM | – | –
CCc1c(C(=O)N[C@@H]2COCc3c2cnn3-c2cccc(OC)c2Cl)ncn1C [Ex-22, (S)—N-(1-(2-chloro-3-methoxyphenyl)-1,4,5,7-tetrahydropyrano[3,4-c]pyrazol-4-yl)-5-ethyl-1-methyl-1H-imidazole-4-carboxamide] | < 10 nM | < 10 nM | – | – | –
COc1cccc(-n2ncc3c2COC[C@H]3NC(=O)c2n[nH]c3c2CCCC3)c1Cl [Ex-24, (S)—N-(1-(2-chloro-3-methoxyphenyl)-1,4,5,7-tetrahydropyrano[3,4-c]pyrazol-4-yl)-4,5,6,7-tetrahydro-1H-indazole-3-carboxamide] | 10 to 100 nM | < 10 nM | – | – | –
COc1cccc(-n2ncc3c2COC[C@H]3NC(=O)c2noc3c2CCCC3)c1Cl [Ex-25, (S)—N-(1-(2-chloro-3-methoxyphenyl)-1,4,5,7-tetrahydropyrano[3,4-c]pyrazol-4-yl)-4,5,6,7-tetrahydrobenzo[d]isoxazole-3-carboxamide] | 10 to 100 nM | < 10 nM | – | – | –
CCc1c(C(=O)N[C@@H]2COCc3c2cnn3-c2cccc(OC)c2Cl)n[nH]c1C [Ex-26, (S)—N-(1-(2-chloro-3-methoxyphenyl)-1,4,5,7-tetrahydropyrano[3,4-c]pyrazol-4-yl)-4-ethyl-5-methyl-1H-pyrazole-3-carboxamide] | < 10 nM | < 10 nM | – | – | –
CCc1c(C(=O)N[C@@H]2COCc3c2cnn3-c2c(F)ccc(OC)c2Cl)ncn1C [Ex-28, (S)—N-(1-(2-chloro-6-fluoro-3-methoxyphenyl)-1,4,5,7-tetrahydropyrano[3,4-c]pyrazol-4-yl)-5-ethyl-1-methyl-1H-imidazole-4-carboxamide] | < 10 nM | < 10 nM | – | – | –
COc1ccc(F)c(-n2ncc3c2COC[C@H]3NC(=O)c2ncc3n2CCCC3)c1Cl [Ex-29, (S)—N-(1-(2-chloro-6-fluoro-3-methoxyphenyl)-1,4,5,7-tetrahydropyrano[3,4-c]pyrazol-4-yl)-5,6,7,8-tetrahydroimidazo[1,5-a]pyridine-3-carboxamide] | < 10 nM | < 10 nM | – | – | –
COc1ccc(F)c(-n2ncc3c2COC[C@H]3NC(=O)c2n[nH]c3c2CCCC3)c1Cl [Ex-30, (S)—N-(1-(2-chloro-6-fluoro-3-methoxyphenyl)-1,4,5,7-tetrahydropyrano[3,4-c]pyrazol-4-yl)-4,5,6,7-tetrahydro-1H-indazole-3-carboxamide] | 10 to 100 nM | < 10 nM | – | – | –
COc1ccc(F)c(-n2ncc3c2COC[C@H]3NC(=O)c2noc3c2CCCC3)c1Cl [Ex-31, (S)—N-(1-(2-chloro-6-fluoro-3-methoxyphenyl)-1,4,5,7-tetrahydropyrano[3,4-c]pyrazol-4-yl)-4,5,6,7-tetrahydrobenzo[d]isoxazole-3-carboxamide] | – | – | < 10 nM | < 10 nM | –
CCc1c(C(=O)N[C@@H]2COCc3c2cnn3-c2c(F)ccc(OC)c2Cl)n[nH]c1C [Ex-32, (S)—N-(1-(2-chloro-6-fluoro-3-methoxyphenyl)-1,4,5,7-tetrahydropyrano[3,4-c]pyrazol-4-yl)-4-ethyl-5-methyl-1H-pyrazole-3-carboxamide] | 10 to 100 nM | – | < 10 nM | – | –
COc1ccc(F)c(-n2ncc3c2COC[C@H]3NC(=O)c2cc(C)c(C)cn2)c1Cl [Ex-33, (S)—N-(1-(2-chloro-6-fluoro-3-methoxyphenyl)-1,4,5,7-tetrahydropyrano[3,4-c]pyrazol-4-yl)-4,5-dimethylpicolinamide] | 10 to 100 nM | 10 to 100 nM | – | – | –
CCc1c(C(=O)N[C@@H]2COCc3c2cnn3-c2c(C)cccc2Cl)ncn1C [Ex-35, (S)—N-(1-(2-chloro-6-methylphenyl)-1,4,5,7-tetrahydropyrano[3,4-c]pyrazol-4-yl)-5-ethyl-1-methyl-1H-imidazole-4-carboxamide] | < 10 nM | < 10 nM | – | – | –
Cc1cccc(Cl)c1-n1ncc2c1COC[C@H]2NC(=O)c1ncc2n1CCCC2 [Ex-36, (S)—N-(1-(2-chloro-6-methylphenyl)-1,4,5,7-tetrahydropyrano[3,4-c]pyrazol-4-yl)-5,6,7,8-tetrahydroimidazo[1,5-a]pyridine-3-carboxamide] | < 10 nM | < 10 nM | – | – | –
Cc1cccc(Cl)c1-n1ncc2c1COC[C@H]2NC(=O)c1n[nH]c2c1CCCC2 [Ex-37, (S)—N-(1-(2-chloro-6-methylphenyl)-1,4,5,7-tetrahydropyrano[3,4-c]pyrazol-4-yl)-4,5,6,7-tetrahydro-1H-indazole-3-carboxamide] | 10 to 100 nM | 10 to 100 nM | – | – | –
Cc1cccc(Cl)c1-n1ncc2c1COC[C@H]2NC(=O)c1noc2c1CCCC2 [Ex-38, (S)—N-(1-(2-chloro-6-methylphenyl)-1,4,5,7-tetrahydropyrano[3,4-c]pyrazol-4-yl)-4,5,6,7-tetrahydrobenzo[d]isoxazole-3-carboxamide] | < 10 nM | < 10 nM | – | – | –
CCc1c(C(=O)N[C@@H]2COCc3c2cnn3-c2c(C)cccc2Cl)n[nH]c1C [Ex-39, (S)—N-(1-(2-chloro-6-methylphenyl)-1,4,5,7-tetrahydropyrano[3,4-c]pyrazol-4-yl)-4-ethyl-5-methyl-1H-pyrazole-3-carboxamide] | 10 to 100 nM | – | 10 to 100 nM | – | –
O=C(N[C@@H]1COCc2c1cnn2-c1cccc(C(F)(F)F)c1Cl)c1ncn2c1CCCC2 [Ex-50, (S)—N-(1-(2-chloro-3-(trifluoromethyl)phenyl)-1,4,5,7-tetrahydropyrano[3,4-c]pyrazol-4-yl)-5,6,7,8-tetrahydroimidazo[1,5-a]pyridine-1-carboxamide] | 10 to 100 nM | < 10 nM | – | – | –
COc1cccc(Cl)c1-n1ncc2c1COC[C@H]2NC(=O)c1ncn2c1CCCC2 [Ex-60, (S)—N-(1-(2-chloro-6-methoxyphenyl)-1,4,5,7-tetrahydropyrano[3,4-c]pyrazol-4-yl)-5,6,7,8-tetrahydroimidazo[1,5-a]pyridine-1-carboxamide] | 10 to 100 nM | 10 to 100 nM | – | – | –
O=C(N[C@@H]1COCc2c1cnn2-c1cccc(O)c1Cl)c1ncn2c1CCCC2 [Ex-62, (S)—N-(1-(2-chloro-3-hydroxyphenyl)-1,4,5,7-tetrahydropyrano[3,4-c]pyrazol-4-yl)-5,6,7,8-tetrahydroimidazo[1,5-a]pyridine-1-carboxamide] | – | – | 10 to 100 nM | – | 10 to 100 nM
